Experimental data: patent US9150592B2, “Heterocyclic nuclear hormone receptor modulators” (AbbVie Inc., priority 2012, dated 2015)

Experiments:
[1] = molecular target: T1, Glucocorticoid Receptor (GR) (Homo sapiens, UniProt P04150); assay: GR Fluorescence Polarization Assay (PolarScreen Glucocorticoid Receptor Competitor Assay, Red); conditions: IC50 class ranges, read-out: GR binding
T1 construct: purchased Invitrogen P2893
T1 sequence (P04150 1-777): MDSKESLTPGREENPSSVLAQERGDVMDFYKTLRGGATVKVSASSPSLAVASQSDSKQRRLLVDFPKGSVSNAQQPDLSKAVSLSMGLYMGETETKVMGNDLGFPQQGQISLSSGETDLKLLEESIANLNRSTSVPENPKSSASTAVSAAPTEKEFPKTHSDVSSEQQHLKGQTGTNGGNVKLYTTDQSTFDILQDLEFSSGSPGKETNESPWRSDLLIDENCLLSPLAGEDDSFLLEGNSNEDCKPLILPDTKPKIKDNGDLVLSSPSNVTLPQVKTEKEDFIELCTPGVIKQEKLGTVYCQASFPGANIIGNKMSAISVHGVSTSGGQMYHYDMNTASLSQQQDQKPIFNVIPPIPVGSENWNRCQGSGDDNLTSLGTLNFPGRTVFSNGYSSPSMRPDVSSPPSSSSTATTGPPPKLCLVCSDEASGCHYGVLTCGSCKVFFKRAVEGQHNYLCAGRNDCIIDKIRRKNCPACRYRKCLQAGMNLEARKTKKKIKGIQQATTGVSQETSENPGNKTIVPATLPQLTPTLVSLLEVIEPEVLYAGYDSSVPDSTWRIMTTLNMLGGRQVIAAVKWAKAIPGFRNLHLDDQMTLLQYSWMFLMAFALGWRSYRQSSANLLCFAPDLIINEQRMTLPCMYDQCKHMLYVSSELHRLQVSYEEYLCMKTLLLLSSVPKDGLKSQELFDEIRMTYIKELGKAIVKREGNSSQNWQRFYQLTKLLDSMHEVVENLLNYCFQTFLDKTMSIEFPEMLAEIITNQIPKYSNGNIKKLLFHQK
How it was run: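 Competitive fluorescence-polarization assay using a red fluorescent glucocorticoid tracer with human GR in kit buffer. Compounds serially diluted 1:4 in DMSO, incubated with tracer and GR overnight at 4° C, then polarization read.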

[2] = tested on: IL-6 in A549 cells stimulated with IL-1β; assay: A549 Cell Assay to Measure Inflammation Markers (inhibition of IL-1β-induced IL-6); type: cell-based; conditions: Homo sapiens, A549, A549 Cell Assay to Measure Inflammation Markers; intrinsic activity, Emax class ranges
How it was run: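 Compound pre-incubated with A549 cells 1 h at 37 °C, then stimulated with IL-1β (1 ng/mL final, 0.1% DMSO). Supernatant IL-6 quantified by MSD immunoassay after a further incubation. IC50 and Emax derived.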

CCn1nc(-c2ccccn2)c2c1NCCSC2c1ccc(C(=O)Nc2ccnn2C)cc1C (stereo not shown) [S.1, 4-(1-ethyl-3-(pyridin-2-yl)-4,6,7,8-tetrahydro-1H-pyrazolo[3,4-e][1,4]thiazepin-4-yl)-3-methyl-N-(1-methyl-1H-pyrazol-5-yl)benzamide]
IC50 [1]: < 0.1 µM
Emax [2]: > 70%

CCn1nc(-c2ccccn2)c2c1NCCSC2c1ccc(C(=O)Nc2cc(C)nn2C)cc1C (stereo not shown) [S.2]
IC50 [1]: < 0.1 µM
Emax [2]: > 70%

CCn1nc(-c2ccccn2)c2c1NCCSC2c1ccc(C(=O)Nc2nncs2)cc1C (stereo not shown) [S.3]
IC50 [1]: < 0.1 µM
Emax [2]: < 50%

CCn1nc(-c2ccccn2)c2c1NCCSC2c1ccc(C(=O)Nc2nnc(C)s2)cc1C (stereo not shown) [S.4]
IC50 [1]: < 0.1 µM
Emax [2]: < 50%

CCn1nc(-c2ccccn2)c2c1NCCSC2c1ccc(C(=O)Nc2nnc[nH]2)cc1C (stereo not shown) [S.5]
IC50 [1]: < 0.1 µM
Emax [2]: > 70%

CCn1nc(-c2ccccn2)c2c1NCCSC2c1ccc(C(=O)Nc2n[nH]cc2C#N)cc1C (stereo not shown) [S.8]
IC50 [1]: < 0.1 µM
Emax [2]: > 50%

CCn1nc(-c2ccccn2)c2c1NCCSC2c1ccc(C(=O)Nc2n[nH]c(C)c2C#N)cc1C (stereo not shown) [S.9]
IC50 [1]: < 0.1 µM
Emax [2]: < 50%

CCn1nc(-c2ccccn2)c2c1NCCSC2c1ccc(C(=O)Nc2cccnc2Cl)cc1C (stereo not shown) [S.10]
IC50 [1]: < 0.1 µM
Emax [2]: > 70%
